Laboratory results taken from patent US20250065090A1, “DEVICE AND METHOD FOR DELIVERY OF A HEARING DRUG FORMULATION” (Corti Therapeutics Pte. Ltd., priority 2023, published 2025).
Like-named read-outs stand apart in the source and are kept apart here.

How the values were obtained:
[1] = test system: patients receiving cisplatin; conditions: cited from earlier work
[2] = Calculated osmolarity of STS formulation; format: physicochemical; conditions: aqueous solution of sodium thiosulfate 0.1M to 0.5M
[3] = test system: cisplatin induced hearing loss; conditions: intratympanic administration, multiple clinical trials; cited from earlier work
[4] = after STS local administration
Protocol: The time-concentration data was used for calculations. The area under the concentration-time curve (AUC) was determined by the trapezoidal rule. Terminal elimination half-lives of sodium thiosulfate (STS) in perilymph and plasma were determined by use of WIN NONLIN version 2.0 SCI.
30 guinea pigs (250-350 g) without sign of otitis media stayed for ˜3 days acclimation, and ready for PK study. Two anesthesia methods (Zoletil+Xylazine with head up 30 min) and Isoflurane (animal wake up immediately post-injection)] were used. 15 animals for each group.
The subjection guinea pig was anesthetized with zolazepam hydrochloride (Zoletil) and Xylazine or isoflurane inhalation. A solution of freshly prepared sodium thiosulfate solution was loaded in a Hamilton syringe with 26 G needle. The needle was carefully inserted into the left middle ear cavity via the tympanic membrane aiming to cochlear round window. ˜50 μL of dosing solution was injected. The animal was positioned head up for ˜30 min prior to waking up in Zoletil and Xylazine or wake up immediately in isoflurane inhalation.
In C-subgroup of each group, animal blood was systemically drawn (˜100 uL) via bilateral saphenous vein at the multiple time points. Put the collection blood in heparinized tube and stay ˜20 min. ˜50 μL of plasma was collected in microtube and put in −80° C. for future analysis.
STS concentrations were quantitatively analyzed by HPLC using an LC-20AT with a SPD-M20A UV-Vis detector (Shimadzu, Kyoto, Japan) and a LiChrospher RP-select B LiChroCART 250-4 […] column (EMD Millipore Corp, Darmstadt, Germany). All samples were prepared using a method similar to that described by Togawa et al. (1992).

[5] = test system: cisplatin induced hearing loss; conditions: intratympanic injection, animal studies; cited from earlier work
[6] = test system: cisplatin hearing loss model
Text: A solution of freshly prepared sodium thiosulfate solution was loaded in a Hamilton syringe with 26 G needle.

[7] = test system: cisplatin induced hearing loss; conditions: systemic administration, humans; cited from earlier work

## N.N.[Cl][Pt][Cl] [cisplatin, Cisplatin]
[1]; cisplatin based chemotherapy, testicular cancer
  cure rate: > 90%
[1]; human, in vivo
  patients developing hearing loss: 60%-80%

## O=S([O-])([O-])=S.[Na+].[Na+] [sodium thiosulfate]
[2]
  calculated osmolarity: < 1500 mOsm/L
[3]
  hearing protection: no meaningful hearing protection
[4]
  Tmax of systemic thiosulfate: approximately 30 min
  systemic thiosulfate concentration: increased
  time until systemic thiosulfate concentration recovered to normal: around 1 hour
[5]
  effect on cisplatin induced hearing loss: prevented the cisplatin induced hearing loss
[6]; 0.2M concentration, simple aqueous formulation without gelling agent, guinea pig cisplatin hearing loss model
  hearing protection: full hearing protection
[6]; all groups (2.5%, 5% and 10% sodium thiosulfate), TT or IT injection ~30 min before cisplatin 10 mg/kg iv, ABR 7 days after infusion, treated vs untreated contralateral ear
  protection of the sodium thiosulfate treated ears (ABR): nearly completed protection
[7]
  effect on cisplatin induced hearing loss: mitigate cisplatin induced hearing loss
